Measured values taken from patent US4379917A, “6"-(Substituted)-apramycin antibiotic derivatives and intermediates and starting materials therefor” (Eli Lilly and Company, priority 1981, dated 1983).
≈ marks a conversion by molar mass, not a printed value. Where two headings read alike, the source gives them in different places.

What was measured:
Type in all cases: cell-based
[1] = test system: Pseudomonas aeruginosa Ps25; assay: MIC by standard agar dilution test
Proteus morganii PR2 = assay: MIC by standard agar dilution test; conditions: Morganella morganii
[2] = test system: Klebsiella pneumoniae KL2; assay: MIC by standard agar dilution test
[3] = test system: Enterobacter cloacae EB24; assay: MIC by standard agar dilution test
[4] = test system: Enterobacter aerogenes EB6; assay: MIC by standard agar dilution test; conditions: Klebsiella aerogenes
Serratia marcescens SE3 = assay: MIC by standard agar dilution test
[5] = test system: Enterobacter aerogenes EB17; assay: MIC by standard agar dilution test; conditions: Klebsiella aerogenes, EB17, read-out: Minimum Inhibitory Concentration
[6] = test system: Pseudomonas aeruginosa Ps9; assay: MIC by standard agar dilution test
[7] = test system: Pseudomonas aeruginosa X239; assay: MIC by standard agar dilution test
[8] = test system: Citrobacter freundii CF17; assay: MIC by standard agar dilution test
Proteus morganii PR1 = assay: MIC by standard agar dilution test; conditions: Morganella morganii
Serratia marcescens X99 = assay: MIC by standard agar dilution test
[9] = test system: Enterobacter cloacae EN453; assay: MIC by standard agar dilution test
Salmonella typhimurium = assay: MIC by standard agar dilution test; conditions: Salmonella enterica, read-out: Minimum Inhibitory Concentration
Escherichia coli EC14 = assay: MIC by standard agar dilution test; conditions: EC14, Table II, agar dilution, read-out: Minimum Inhibitory Concentration
[10] = test system: Pseudomonas aeruginosa X48; assay: MIC by standard agar dilution test
Proteus morganii PR15 = assay: MIC by standard agar dilution test; conditions: Morganella morganii, PR15; Table II; agar dilution; read-out: Minimum Inhibitory Concentration
[11] = test system: Pseudomonas aeruginosa PI23; assay: MIC by standard agar dilution test
[12] = test system: Pseudomonas aeruginosa Ps15; assay: MIC by standard agar dilution test
[13] = test system: Staphylococcus aureus 3055; assay: MIC by standard agar dilution test
[14] = test system: Pseudomonas aeruginosa SF-2; assay: MIC by standard agar dilution test
Proteus inconstans PV25 = assay: MIC by standard agar dilution test; conditions: Providencia alcalifaciens
[15] = test system: Klebsiella pneumoniae KL14; assay: MIC by standard agar dilution test; conditions: KL14, read-out: Minimum Inhibitory Concentration
[16] = test system: Pseudomonas aeruginosa 4276; assay: MIC by standard agar dilution test
[17] = test system: Pseudomonas aeruginosa X528; assay: MIC by standard agar dilution test
Serratia marcescens SE2 = assay: MIC by standard agar dilution test
[18] = test system: Staphylococcus aureus 3074; assay: MIC by standard agar dilution test; conditions: Table II, read-out: Minimum Inhibitory Concentration
From the text: (§1) The antibacterial activity of the antibiotic compounds of this invention is illustrated by the following in vitro and in vivo test data obtained with representative compounds. In Tables I and II the minimum inhibitory concentration (MIC) for representative compounds against a wide range of gram-positive and gram-negative bacteria is presented. The MIC values were obtained by the standard agar dilution test.

[19] = test system: Pseudomonas solanacearum X185; assay: microbe, parasite or virus in culture; conditions: Ralstonia solanacearum, X185, read-out: Minimum Inhibitory Concentration
[20] = test system: Streptococcus faecalis X66; assay: MIC by standard agar dilution test; conditions: Enterococcus faecalis, X66; Table II; agar dilution; read-out: Minimum Inhibitory Concentration
[21] = test system: Bordetella bronchiseptica 16; assay: MIC by standard agar dilution test
Salmonella typhosa SA12 = assay: MIC by standard agar dilution test; conditions: Salmonella enterica, read-out: Minimum Inhibitory Concentration
Erwinia amylovora = assay: MIC by standard agar dilution test; conditions: Table II, read-out: Minimum Inhibitory Concentration
From the text: as §1

[22] = PR2, Table 1, agar dilution, read-out: Minimum Inhibitory Concentration
[23] = KL2, Table 1, agar dilution, read-out: Minimum Inhibitory Concentration
[24] = EB24, read-out: Minimum Inhibitory Concentration
[25] = EB6, read-out: Minimum Inhibitory Concentration
[26] = SE3, Table 1, read-out: Minimum Inhibitory Concentration
[27] = PR1, Table 1, agar dilution, read-out: Minimum Inhibitory Concentration
[28] = X99, read-out: Minimum Inhibitory Concentration
[29] = EN453, Table 1, agar dilution, read-out: Minimum Inhibitory Concentration
[30] = PV25, Table 1, agar dilution, read-out: Minimum Inhibitory Concentration
[31] = SE2, Table 1, agar dilution, read-out: Minimum Inhibitory Concentration
[32] = PS25, read-out: Minimum Inhibitory Concentration
[33] = PS9, read-out: Minimum Inhibitory Concentration
[34] = X239, read-out: Minimum Inhibitory Concentration, Table 1
[35] = X48, read-out: Minimum Inhibitory Concentration
[36] = PI23, read-out: Minimum Inhibitory Concentration
[37] = PS15, read-out: Minimum Inhibitory Concentration
[38] = SF2, read-out: Minimum Inhibitory Concentration
[39] = Pseudomonas aeruginosa, 4276, read-out: Minimum Inhibitory Concentration
[40] = X528, read-out: Minimum Inhibitory Concentration

SMILES: CN[C@@H]1[C@@H](O[C@H]2O[C@H](COS(C)(=O)=O)[C@@H](N)[C@H](O)[C@H]2O)O[C@H]2C[C@@H](N)[C@@H](O[C@H]3[C@H](O)[C@@H](O)[C@H](N)C[C@@H]3N)O[C@@H]2[C@@H]1O [Test Compound 1, 6"-O-(Methanesulfonyl)apramycin]
- MIC ([1]; PS25, Table 1, agar dilution, read-out: Minimum Inhibitory Concentration): 64 µg/mL (≈ 104 µM)
- MIC (Proteus morganii PR2; [22]): 32 µg/mL (≈ 51.8 µM)
- MIC [2, 23]: 8 µg/mL (≈ 13 µM)
- MIC [3, 24]: 4 µg/mL (≈ 6.48 µM)
- MIC [4, 25]: 4 µg/mL (≈ 6.48 µM)
- MIC (Serratia marcescens SE3; [26]): 8 µg/mL (≈ 13 µM)
- MIC (Serratia marcescens SE3; SE3, Table II, read-out: Minimum Inhibitory Concentration): 16 µg/mL (≈ 25.9 µM)
- MIC [5]: 4 µg/mL (≈ 6.48 µM)
- MIC ([6]; PS9, Table 1, agar dilution, read-out: Minimum Inhibitory Concentration): > 128 µg/mL
- MIC ([7]; X239, Table 1, read-out: Minimum Inhibitory Concentration): 128 µg/mL (≈ 207 µM)
- MIC ([7]; X239, read-out: Minimum Inhibitory Concentration, Table II): 4 µg/mL (≈ 6.48 µM)
- MIC ([8]; CF17, read-out: Minimum Inhibitory Concentration): 4 µg/mL (≈ 6.48 µM)
- MIC (Proteus morganii PR1; [27]): 8 µg/mL (≈ 13 µM)
- MIC (Serratia marcescens X99; [28]): 4 µg/mL (≈ 6.48 µM)
- MIC [9, 29]: 8 µg/mL (≈ 13 µM)
- MIC (Salmonella typhimurium): 4 µg/mL (≈ 6.48 µM)
- MIC (Escherichia coli EC14): 8 µg/mL (≈ 13 µM)
- MIC ([10]; X48, Table 1, agar dilution, read-out: Minimum Inhibitory Concentration): 128 µg/mL (≈ 207 µM)
- MIC (Proteus morganii PR15): 32 µg/mL (≈ 51.8 µM)
- MIC ([11]; PI23, Table 1, agar dilution, read-out: Minimum Inhibitory Concentration): > 128 µg/mL
- MIC ([12]; PS15, Table 1, agar dilution, read-out: Minimum Inhibitory Concentration): 128 µg/mL (≈ 207 µM)
- MIC ([13]; Staphylococcus aureus, 3055, read-out: Minimum Inhibitory Concentration): 2 µg/mL (≈ 3.24 µM)
- MIC ([14]; SF2, Table 1, agar dilution, read-out: Minimum Inhibitory Concentration): 128 µg/mL (≈ 207 µM)
- MIC (Proteus inconstans PV25; [30]): 8 µg/mL (≈ 13 µM)
- MIC [15]: 4 µg/mL (≈ 6.48 µM)
- MIC ([16]; Pseudomonas aeruginosa, 4276, Table 1, agar dilution, read-out: Minimum Inhibitory Concentration): > 128 µg/mL
- MIC ([17]; X528, Table 1, agar dilution, read-out: Minimum Inhibitory Concentration): 128 µg/mL (≈ 207 µM)
- MIC (Serratia marcescens SE2; [31]): 8 µg/mL (≈ 13 µM)
- MIC [18]: 4 µg/mL (≈ 6.48 µM)
- MIC [19]: 1 µg/mL (≈ 1.62 µM)
- MIC [20]: 32 µg/mL (≈ 51.8 µM)
- MIC ([21]; Bordetella bronchiseptica, 16, Table II, agar dilution, read-out: Minimum Inhibitory Concentration): 16 µg/mL (≈ 25.9 µM)
- MIC (Salmonella typhosa SA12): 4 µg/mL (≈ 6.48 µM)

SMILES: CN[C@@H]1[C@@H](O[C@H]2O[C@H](COS(=O)(=O)c3ccc(C)cc3)[C@@H](N)[C@H](O)[C@H]2O)O[C@H]2C[C@@H](N)[C@@H](O[C@H]3[C@H](O)[C@@H](O)[C@H](N)C[C@@H]3N)O[C@@H]2[C@@H]1O [Test Compound 2, 6"-O-(Para-toluenesulfonyl)apramycin]
- MIC [1, 32]: > 128 µg/mL
- MIC (Proteus morganii PR2; [22]): 16 µg/mL (≈ 23.1 µM)
- MIC [2, 23]: 16 µg/mL (≈ 23.1 µM)
- MIC ([3]; EB24, Table 1, agar dilution, read-out: Minimum Inhibitory Concentration): 16 µg/mL (≈ 23.1 µM)
- MIC ([4]; EB6, Table 1, agar dilution, read-out: Minimum Inhibitory Concentration): 16 µg/mL (≈ 23.1 µM)
- MIC (Serratia marcescens SE3; [26]): 16 µg/mL (≈ 23.1 µM)
- MIC (Serratia marcescens SE3; SE3, read-out: Minimum Inhibitory Concentration, Table II): 32 µg/mL (≈ 46.1 µM)
- MIC [6, 33]: > 128 µg/mL
- MIC ([7]; X239, Table II, read-out: Minimum Inhibitory Concentration): 16 µg/mL (≈ 23.1 µM)
- MIC [7, 34]: > 128 µg/mL
- MIC ([8]; CF17, Table II, agar dilution, read-out: Minimum Inhibitory Concentration): 4 µg/mL (≈ 5.77 µM)
- MIC (Proteus morganii PR1; [27]): 16 µg/mL (≈ 23.1 µM)
- MIC (Serratia marcescens X99; X99, Table 1, agar dilution, read-out: Minimum Inhibitory Concentration): 16 µg/mL (≈ 23.1 µM)
- MIC [9, 29]: 16 µg/mL (≈ 23.1 µM)
- MIC (Salmonella typhimurium; Table II, agar dilution): 4 µg/mL (≈ 5.77 µM)
- MIC (Escherichia coli EC14): 4 µg/mL (≈ 5.77 µM)
- MIC [10, 35]: > 128 µg/mL
- MIC (Proteus morganii PR15): 16 µg/mL (≈ 23.1 µM)
- MIC [11, 36]: > 128 µg/mL
- MIC [12, 37]: > 128 µg/mL
- MIC ([13]; Staphylococcus aureus, 3055, Table II, agar dilution, read-out: Minimum Inhibitory Concentration): < 0.5 µg/mL
- MIC [14, 38]: > 128 µg/mL
- MIC (Proteus inconstans PV25; [30]): 16 µg/mL (≈ 23.1 µM)
- MIC [15]: 2 µg/mL (≈ 2.88 µM)
- MIC [16, 39]: > 128 µg/mL
- MIC [17, 40]: > 128 µg/mL
- MIC (Serratia marcescens SE2; [31]): 16 µg/mL (≈ 23.1 µM)
- MIC [18]: 2 µg/mL (≈ 2.88 µM)
- MIC (Erwinia amylovora): 2 µg/mL (≈ 2.88 µM)
- MIC [19]: 1 µg/mL (≈ 1.44 µM)
- MIC [20]: 16 µg/mL (≈ 23.1 µM)
- MIC ([21]; Bordetella bronchiseptica, 16, read-out: Minimum Inhibitory Concentration): 64 µg/mL (≈ 92.2 µM)
- MIC (Salmonella typhosa SA12): 1 µg/mL (≈ 1.44 µM)

SMILES: CN[C@@H]1[C@@H](O[C@H]2O[C@H](CO[Si](C)(C)C(C)(C)C)[C@@H](N)[C@H](O)[C@H]2O)O[C@H]2C[C@@H](N)[C@@H](O[C@H]3[C@H](O)[C@@H](O)[C@H](N)C[C@@H]3N)O[C@@H]2[C@@H]1O [Test Compound 6, 6"-O-(tert-Butyldimethylsilyl)Apramycin]
- MIC [1, 32]: 128 µg/mL (≈ 196 µM)
- MIC (Proteus morganii PR2; PR2, read-out: Minimum Inhibitory Concentration): 64 µg/mL (≈ 97.9 µM)
- MIC ([2]; KL2, read-out: Minimum Inhibitory Concentration): 32 µg/mL (≈ 48.9 µM)
- MIC [3, 24]: 16 µg/mL (≈ 24.5 µM)
- MIC [4, 25]: 32 µg/mL (≈ 48.9 µM)
- MIC (Serratia marcescens SE3; SE3, read-out: Minimum Inhibitory Concentration, Table 1): 64 µg/mL (≈ 97.9 µM)
- MIC [6, 33]: > 128 µg/mL
- MIC [7, 34]: 128 µg/mL (≈ 196 µM)
- MIC (Proteus morganii PR1; PR1, read-out: Minimum Inhibitory Concentration): 32 µg/mL (≈ 48.9 µM)
- MIC (Serratia marcescens X99; [28]): 32 µg/mL (≈ 48.9 µM)
- MIC ([9]; EN453, read-out: Minimum Inhibitory Concentration): 32 µg/mL (≈ 48.9 µM)
- MIC [10, 35]: > 128 µg/mL
- MIC [11, 36]: > 128 µg/mL
- MIC [12, 37]: 128 µg/mL (≈ 196 µM)
- MIC [14, 38]: 128 µg/mL (≈ 196 µM)
- MIC (Proteus inconstans PV25; PV25, read-out: Minimum Inhibitory Concentration): 16 µg/mL (≈ 24.5 µM)
- MIC [16, 39]: 128 µg/mL (≈ 196 µM)
- MIC [17, 40]: 64 µg/mL (≈ 97.9 µM)
- MIC (Serratia marcescens SE2; SE2, read-out: Minimum Inhibitory Concentration): 64 µg/mL (≈ 97.9 µM)
